Source: patent EP4670719A1, “PHARMACEUTICAL COMPOSITION OF BENZO NITROGEN HETEROAROMATIC RING DERIVATIVE AND USE THEREOF IN MEDICINE” (Haisco Pharmaceutical Group Co., Ltd., priority 2023, dated 2024)

How the values were obtained:
[1] = i.g. (10 mg/kg)
[2] = test system: complement alternative pathway; assay: Test of inhibitory effect on the complement alternative pathway (IBL alternative pathway kit, LPS-coated plate); type: biochemical, healthy volunteers; conditions: inhibiting the alternative pathway; diluted serum, 30 min pretreatment, 1 h at 37°C
Procedure: The inhibitory effect of the compounds on the complement alternative pathway was detected using the IBL alternative pathway kit (COMPL AP330 RUO). Serum from healthy volunteers was collected and 1 portion was diluted with a buffer of 20 mM EDTA in gelatin (0.15 mM CaCl2, 141 mM NaCl, 4.5 mM MgCl2, 4.2 mM HEPES, and 0.1% gelatin at pH 7.4) to 50% (v/v), and 1 portion was diluted to 50% (v/v) with a buffer of 20 mM EGTA in gelatin. The compounds were prepared in DMSO to a working solution 100 times the final concentration. Before use, 50% of the above serum was diluted 1/18 with an AP diluent in the kit. 1 part of the compound working solution (v/v) or DMSO (positive control PC) was added to 99 parts of the diluted serum containing EGTA for pretreatment for 30 min, and 1 part of DMSO (v/v) was added to 99 parts of the diluted serum containing EDTA, as negative control (NC). The serum pretreated with the above compounds (or DMSO) was added at […] to an LPS-coated 96-well plate and incubated at 37°C for 1 h, and the plate was washed 3 times with washing solution in the kit, and the conjugated chromogenic substrate was added according to the instruction in the kit, and the absorbance was read at 405 nm with a microplate reader. The inhibitory activity of the compounds on alternative pathway was calculated using the following formula. […]

Compound	AUC0-24 h ([1]; rat plasma)	Cmax ([1]; rat plasma)	T1/2 ([1]; rat plasma)	Tmax ([1]; rat plasma)	F% ([1]; rats)	IC50 [2]
CCO[C@H]1CCN(Cc2c(OC)cc(C)c3[nH]ccc23)[C@H](c2ccc(C(=O)O)cc2)C1 [LNP023]	9867 ng·h/mL	867 ng/mL	3.39 h	3.5 h	49%	–
[2H]C([2H])([2H])Oc1cc(C)c2[nH]ccc2c1CN1CC[C@@H](C2CC2)C[C@H]1c1ccc(C(=O)O)cc1 [Trifluoroacetate of compound 1]	–	–	–	–	–	< 200 nM
COc1cc(C)c2[nH]ccc2c1CN1CC[C@@H](C2CC2)C[C@H]1c1ccc(C(=O)O)cc1 [Trifluoroacetate of compound 2]	–	–	–	–	–	< 200 nM
